The target of test [1] is T1, Alpha-1A adrenergic receptor (Homo sapiens, UniProt P35348).
T1 sequence (P35348 whole entry): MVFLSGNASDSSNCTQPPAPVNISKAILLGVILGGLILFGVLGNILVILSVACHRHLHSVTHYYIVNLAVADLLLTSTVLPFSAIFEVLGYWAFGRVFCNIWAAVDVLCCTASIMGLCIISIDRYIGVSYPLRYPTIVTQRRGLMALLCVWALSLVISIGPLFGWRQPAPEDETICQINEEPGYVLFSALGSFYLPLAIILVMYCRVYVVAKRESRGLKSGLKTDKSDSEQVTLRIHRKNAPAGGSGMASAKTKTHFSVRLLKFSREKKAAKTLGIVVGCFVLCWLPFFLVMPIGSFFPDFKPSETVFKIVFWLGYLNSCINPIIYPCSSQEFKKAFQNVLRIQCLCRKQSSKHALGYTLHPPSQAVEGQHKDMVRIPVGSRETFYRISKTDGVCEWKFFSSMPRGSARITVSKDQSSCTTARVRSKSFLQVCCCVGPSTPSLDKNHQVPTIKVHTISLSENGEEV
In kind it is functional, cell-based.

Test [2] has as its target cGMP-inhibited 3',5'-cyclic phosphodiesterase 3A (Homo sapiens, UniProt Q14432). In kind it is functional.
The target in test [3] is Prostaglandin G/H synthase 1 (Homo sapiens, UniProt P23219). The test is classed as functional.
For another test, the target named is Acetylcholinesterase (Homo sapiens, UniProt P22303). In kind it is functional.
Test [4] concerns the target T2, Muscarinic acetylcholine receptor M2 (Homo sapiens, UniProt P08172).
T2 sequence (P08172 whole entry): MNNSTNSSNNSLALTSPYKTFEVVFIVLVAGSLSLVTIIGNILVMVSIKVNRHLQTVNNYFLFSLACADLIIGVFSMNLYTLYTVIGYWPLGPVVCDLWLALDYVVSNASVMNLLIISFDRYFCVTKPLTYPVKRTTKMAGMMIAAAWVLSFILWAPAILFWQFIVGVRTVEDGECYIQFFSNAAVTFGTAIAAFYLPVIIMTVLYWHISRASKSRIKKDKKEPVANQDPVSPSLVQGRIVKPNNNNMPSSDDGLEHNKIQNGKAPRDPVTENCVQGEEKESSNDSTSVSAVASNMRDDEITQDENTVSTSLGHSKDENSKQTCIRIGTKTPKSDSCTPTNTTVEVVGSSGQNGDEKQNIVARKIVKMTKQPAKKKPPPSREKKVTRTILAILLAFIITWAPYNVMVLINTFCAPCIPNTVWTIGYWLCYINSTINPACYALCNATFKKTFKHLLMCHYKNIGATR

A further test has as its target T3, Thromboxane A2 receptor (Homo sapiens, UniProt P21731).
T3 sequence (P21731 whole entry): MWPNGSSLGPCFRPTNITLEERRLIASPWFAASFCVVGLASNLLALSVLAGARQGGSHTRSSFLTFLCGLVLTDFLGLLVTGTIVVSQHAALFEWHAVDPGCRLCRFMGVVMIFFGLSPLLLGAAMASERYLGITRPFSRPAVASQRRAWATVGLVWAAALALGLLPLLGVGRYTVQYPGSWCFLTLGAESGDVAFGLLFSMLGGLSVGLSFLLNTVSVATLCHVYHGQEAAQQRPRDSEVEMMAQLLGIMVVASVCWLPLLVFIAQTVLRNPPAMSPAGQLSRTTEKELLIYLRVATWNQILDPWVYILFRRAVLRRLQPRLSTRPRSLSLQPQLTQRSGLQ
In kind it is functional, cell-based.

The target in test [5] is T4, Amine oxidase [flavin-containing] A (Homo sapiens, UniProt P21397).
T4 sequence (P21397 whole entry): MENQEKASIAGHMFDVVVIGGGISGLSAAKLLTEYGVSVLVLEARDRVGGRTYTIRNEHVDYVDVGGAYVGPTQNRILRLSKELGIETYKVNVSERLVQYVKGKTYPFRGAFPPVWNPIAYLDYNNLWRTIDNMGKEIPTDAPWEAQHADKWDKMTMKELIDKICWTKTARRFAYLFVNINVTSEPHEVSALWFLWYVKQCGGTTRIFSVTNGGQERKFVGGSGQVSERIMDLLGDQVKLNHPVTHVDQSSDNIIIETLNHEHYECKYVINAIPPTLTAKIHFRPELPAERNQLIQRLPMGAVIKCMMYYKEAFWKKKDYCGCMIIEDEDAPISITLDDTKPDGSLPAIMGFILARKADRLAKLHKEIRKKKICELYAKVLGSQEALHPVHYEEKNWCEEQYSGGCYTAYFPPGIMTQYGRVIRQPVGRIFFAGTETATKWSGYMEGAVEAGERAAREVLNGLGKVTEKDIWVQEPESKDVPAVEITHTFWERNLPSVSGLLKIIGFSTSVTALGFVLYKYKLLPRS
In kind it is functional.

For the next test, the target named is T5, Progesterone receptor (Homo sapiens, UniProt P06401).
T5 sequence (P06401 whole entry): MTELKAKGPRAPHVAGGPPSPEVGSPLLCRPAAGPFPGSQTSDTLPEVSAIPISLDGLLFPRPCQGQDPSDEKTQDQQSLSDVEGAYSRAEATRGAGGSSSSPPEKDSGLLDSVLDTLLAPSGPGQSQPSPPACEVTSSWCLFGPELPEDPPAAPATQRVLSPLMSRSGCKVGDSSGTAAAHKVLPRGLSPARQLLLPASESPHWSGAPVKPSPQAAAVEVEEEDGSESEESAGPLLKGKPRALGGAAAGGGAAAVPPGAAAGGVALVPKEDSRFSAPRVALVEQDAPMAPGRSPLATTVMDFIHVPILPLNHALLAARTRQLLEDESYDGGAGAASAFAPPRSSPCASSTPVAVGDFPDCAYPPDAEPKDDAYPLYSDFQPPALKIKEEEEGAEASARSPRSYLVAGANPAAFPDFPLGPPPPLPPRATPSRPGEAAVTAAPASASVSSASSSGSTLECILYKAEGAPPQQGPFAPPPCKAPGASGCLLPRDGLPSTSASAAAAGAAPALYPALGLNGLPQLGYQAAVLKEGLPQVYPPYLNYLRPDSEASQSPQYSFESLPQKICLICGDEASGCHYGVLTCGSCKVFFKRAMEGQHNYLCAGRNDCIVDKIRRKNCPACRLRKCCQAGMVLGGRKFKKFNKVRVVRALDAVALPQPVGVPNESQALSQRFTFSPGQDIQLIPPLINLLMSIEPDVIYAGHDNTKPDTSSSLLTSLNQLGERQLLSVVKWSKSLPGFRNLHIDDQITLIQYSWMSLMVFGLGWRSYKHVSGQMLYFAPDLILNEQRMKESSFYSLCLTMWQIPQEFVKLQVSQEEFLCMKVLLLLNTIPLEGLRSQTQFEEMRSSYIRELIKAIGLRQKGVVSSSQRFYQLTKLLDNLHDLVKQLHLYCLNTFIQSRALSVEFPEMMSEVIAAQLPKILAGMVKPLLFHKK

Test [6] deals with Sodium-dependent noradrenaline transporter (Homo sapiens, UniProt P23975).

Structures are written as SMILES. A value given as a limit tells only on which side of the number the result lay.
Note: assay procedure not described here.

Chain of Acetylcholinesterase (P22303 whole entry): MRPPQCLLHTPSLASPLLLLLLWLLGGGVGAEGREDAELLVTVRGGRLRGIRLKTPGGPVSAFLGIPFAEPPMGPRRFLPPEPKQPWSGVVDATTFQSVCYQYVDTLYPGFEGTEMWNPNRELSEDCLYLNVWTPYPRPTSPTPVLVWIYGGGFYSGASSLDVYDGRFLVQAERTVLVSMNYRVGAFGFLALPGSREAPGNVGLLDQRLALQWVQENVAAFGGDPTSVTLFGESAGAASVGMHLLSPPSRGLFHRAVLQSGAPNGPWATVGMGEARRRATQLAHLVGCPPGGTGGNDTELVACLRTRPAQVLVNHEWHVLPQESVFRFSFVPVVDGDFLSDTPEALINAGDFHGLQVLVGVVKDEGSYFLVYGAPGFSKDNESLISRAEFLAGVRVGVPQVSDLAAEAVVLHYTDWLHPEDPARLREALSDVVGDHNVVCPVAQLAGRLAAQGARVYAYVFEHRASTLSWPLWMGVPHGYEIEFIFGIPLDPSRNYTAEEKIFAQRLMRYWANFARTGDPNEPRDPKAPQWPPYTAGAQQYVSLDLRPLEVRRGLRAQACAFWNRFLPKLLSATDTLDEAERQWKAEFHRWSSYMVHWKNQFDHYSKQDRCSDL
Chain of cGMP-inhibited 3',5'-cyclic phosphodiesterase 3A (Q14432 whole entry): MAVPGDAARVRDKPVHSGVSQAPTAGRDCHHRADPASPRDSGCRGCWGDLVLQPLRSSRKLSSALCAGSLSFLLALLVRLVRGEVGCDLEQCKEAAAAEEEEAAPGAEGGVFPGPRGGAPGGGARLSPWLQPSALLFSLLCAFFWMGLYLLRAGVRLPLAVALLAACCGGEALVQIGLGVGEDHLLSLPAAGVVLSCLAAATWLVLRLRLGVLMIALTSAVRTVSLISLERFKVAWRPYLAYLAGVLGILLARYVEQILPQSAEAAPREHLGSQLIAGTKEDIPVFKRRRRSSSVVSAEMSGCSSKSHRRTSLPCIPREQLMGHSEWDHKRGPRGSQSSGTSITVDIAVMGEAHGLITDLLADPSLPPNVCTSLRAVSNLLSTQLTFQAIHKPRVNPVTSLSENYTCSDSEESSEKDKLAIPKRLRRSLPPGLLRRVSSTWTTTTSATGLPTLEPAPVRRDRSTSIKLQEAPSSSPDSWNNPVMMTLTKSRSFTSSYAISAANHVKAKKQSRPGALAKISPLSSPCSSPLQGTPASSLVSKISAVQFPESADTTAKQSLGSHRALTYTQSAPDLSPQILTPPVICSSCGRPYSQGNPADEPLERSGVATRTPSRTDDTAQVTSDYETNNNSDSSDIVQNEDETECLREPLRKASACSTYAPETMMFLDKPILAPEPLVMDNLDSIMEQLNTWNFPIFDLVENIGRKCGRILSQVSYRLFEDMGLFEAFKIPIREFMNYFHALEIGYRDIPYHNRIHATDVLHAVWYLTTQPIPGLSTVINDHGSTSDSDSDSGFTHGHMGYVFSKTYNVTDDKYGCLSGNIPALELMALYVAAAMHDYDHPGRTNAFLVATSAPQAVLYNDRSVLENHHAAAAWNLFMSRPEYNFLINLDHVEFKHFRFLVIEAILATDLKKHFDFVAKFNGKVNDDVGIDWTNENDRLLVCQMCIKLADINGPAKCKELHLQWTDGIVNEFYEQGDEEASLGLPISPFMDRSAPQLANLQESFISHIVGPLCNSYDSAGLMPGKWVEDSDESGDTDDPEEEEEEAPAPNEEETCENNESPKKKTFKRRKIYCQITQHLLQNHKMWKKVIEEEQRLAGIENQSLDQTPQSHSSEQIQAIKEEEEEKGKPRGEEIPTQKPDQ
Chain of Prostaglandin G/H synthase 1 (P23219 whole entry): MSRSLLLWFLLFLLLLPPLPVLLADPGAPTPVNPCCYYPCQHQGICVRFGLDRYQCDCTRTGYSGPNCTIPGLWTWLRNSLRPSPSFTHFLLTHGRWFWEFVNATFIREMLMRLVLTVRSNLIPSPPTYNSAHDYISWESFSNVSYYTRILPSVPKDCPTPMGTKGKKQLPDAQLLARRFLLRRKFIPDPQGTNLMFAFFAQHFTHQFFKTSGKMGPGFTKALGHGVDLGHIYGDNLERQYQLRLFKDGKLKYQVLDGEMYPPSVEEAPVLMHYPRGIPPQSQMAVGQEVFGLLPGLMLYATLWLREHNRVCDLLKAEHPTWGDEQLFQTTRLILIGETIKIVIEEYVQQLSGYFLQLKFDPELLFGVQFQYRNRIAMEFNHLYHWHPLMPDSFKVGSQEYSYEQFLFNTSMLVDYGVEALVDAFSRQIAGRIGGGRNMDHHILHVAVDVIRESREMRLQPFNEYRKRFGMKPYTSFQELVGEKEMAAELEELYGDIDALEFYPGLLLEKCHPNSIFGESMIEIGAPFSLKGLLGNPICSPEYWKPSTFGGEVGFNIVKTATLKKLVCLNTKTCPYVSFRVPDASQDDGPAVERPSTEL
Chain of Sodium-dependent noradrenaline transporter (P23975 whole entry): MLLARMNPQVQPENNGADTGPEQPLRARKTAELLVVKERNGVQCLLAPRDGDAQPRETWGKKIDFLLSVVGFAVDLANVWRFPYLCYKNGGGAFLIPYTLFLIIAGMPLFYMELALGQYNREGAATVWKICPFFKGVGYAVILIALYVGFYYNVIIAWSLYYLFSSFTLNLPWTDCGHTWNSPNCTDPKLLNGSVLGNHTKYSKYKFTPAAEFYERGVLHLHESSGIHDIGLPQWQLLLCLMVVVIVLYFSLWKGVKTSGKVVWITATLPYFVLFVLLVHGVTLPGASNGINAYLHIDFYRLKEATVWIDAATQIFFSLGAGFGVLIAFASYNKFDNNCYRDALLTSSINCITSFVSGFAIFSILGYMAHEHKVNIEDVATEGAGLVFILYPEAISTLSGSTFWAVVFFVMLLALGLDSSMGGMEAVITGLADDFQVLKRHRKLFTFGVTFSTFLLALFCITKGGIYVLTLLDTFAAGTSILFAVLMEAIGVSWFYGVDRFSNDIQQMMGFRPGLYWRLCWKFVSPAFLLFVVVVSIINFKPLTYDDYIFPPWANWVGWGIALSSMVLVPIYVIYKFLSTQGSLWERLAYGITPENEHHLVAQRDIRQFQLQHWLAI

As to `CC(=O)OC(C)C[N+](C)(C)C` (stereo unspecified) [METHACHOLINE], the AC50 in [1] was greater than 30 µM; in test [2], greater than 30 µM; in test [3], greater than 30 µM; at Acetylcholinesterase, greater than 30 µM; in [4] it was 2.22 µM; on Thromboxane A2 receptor it was 0.824 µM. Besides, the AC50 (in test [5]; on Progesterone receptor; in test [6]) was greater than 30 µM throughout.
As to `NC(=O)c1cccc2cn(-c3ccc([C@@H]4CCCNC4)cc3)nc12` [NIRAPARIB], the AC50 in test [1] is greater than 30 µM; in [2] it was greater than 30 µM; in test [3], greater than 30 µM; at Acetylcholinesterase, greater than 30 µM; in test [4], 14.4 µM; on Thromboxane A2 receptor, greater than 30 µM. Besides, the AC50 in test [5] was greater than 30 µM; at Progesterone receptor, greater than 30 µM; in test [6], 1 µM.
In the case of `O=C(Nc1ccccc1)OCC(CN1CCCCC1)OC(=O)Nc1ccccc1` (stereo unspecified) [DIPERODON], the half-maximal activity concentration (AC50) (in test [1]; in [2]; in test [3]; on Acetylcholinesterase; in [4]; on Thromboxane A2 receptor) was greater than 30 µM throughout. Further, the AC50 (in test [5]; at Progesterone receptor; in test [6]) was greater than 30 µM in each case.
For `O=C(O)CCCN1CCC(O[C@@H](c2ccc(Cl)cc2)c2ccccn2)CC1` [BEPOTASTINE], the AC50 (in test [1]; in test [2]; in [3]; at Acetylcholinesterase; in test [4]; at Thromboxane A2 receptor) was greater than 30 µM each time. Besides, the AC50 (in test [5]; at Progesterone receptor; in test [6]) was greater than 30 µM throughout.
As for `Cn1cc[nH]c1=S` [METHIMAZOLE], the AC50 in test [1] is greater than 30 µM; in [2] it was greater than 30 µM; in test [3] it was 0.541 µM; on Acetylcholinesterase, greater than 30 µM; in [4], greater than 30 µM; on Thromboxane A2 receptor, greater than 30 µM. Also, the AC50 (in test [5]; on Progesterone receptor; in test [6]) was greater than 30 µM in each case.
For the compound `CCC(Cc1c(I)cc(I)c(N)c1I)C(=O)O` (stereo unspecified) [IOPANOIC ACID], the AC50 in test [1] is 24.2 µM; in test [2], greater than 30 µM; in [3], greater than 30 µM; at Acetylcholinesterase it was greater than 30 µM; in test [4], greater than 30 µM; at Thromboxane A2 receptor, greater than 30 µM. For the same compound, the AC50 (in [5]; on Progesterone receptor; in test [6]) was greater than 30 µM throughout.
On to `NCc1ccccc1CC(=O)N[C@@H]1C(=O)N2C(C(=O)O)=C(CSc3nnnn3CC(=O)O)CS[C@H]12` [CEFORANIDE], for which the AC50 (in [1]; in test [2]; in [3]; on Acetylcholinesterase; in test [4]; at Thromboxane A2 receptor) was greater than 30 µM throughout. Besides, the AC50 (in [5]; at Progesterone receptor; in test [6]) was greater than 30 µM each time.
`Oc1c(I)cc(I)c2cccnc12` [IODOQUINOL]: the AC50 in test [1] is greater than 30 µM; in [2], 3.36 µM; in test [3], greater than 30 µM; at Acetylcholinesterase it was greater than 30 µM; in test [4], greater than 10 µM; at Thromboxane A2 receptor, greater than 30 µM. In addition, the AC50 in [5] is greater than 30 µM; at Progesterone receptor it was greater than 30 µM; in test [6], 0.874 µM.
As to `O=C1NCC2(CCN(CCc3ccccc3)CC2)O1` [FENSPIRIDE], the concentration at half-maximal activity (AC50) is greater than 30 µM in test [1]; greater than 30 µM in test [2]; greater than 30 µM in test [3]; greater than 30 µM on Acetylcholinesterase; 16.4 µM in test [4]; greater than 30 µM on Thromboxane A2 receptor. Further, the half-maximal activity concentration (AC50) (in test [5]; on Progesterone receptor; in test [6]) was greater than 30 µM each time.
With `CC/C=C\C/C=C\C/C=C\C/C=C\C/C=C\CCCC(=O)O` [ICOSAPENT], the half-maximal activity concentration (AC50) in test [1] is greater than 30 µM; in [2], greater than 30 µM; in test [3], greater than 10 µM; at Acetylcholinesterase, greater than 30 µM; in test [4], greater than 30 µM; at Thromboxane A2 receptor, greater than 30 µM. Besides, the AC50 (in test [5]; on Progesterone receptor; in test [6]) was greater than 30 µM each time.
On to `C[C@@H]1C[C@H]2[C@@H]3C[C@H](F)C4=CC(=O)C(Cl)=C[C@]4(C)[C@@]3(F)[C@@H](O)C[C@]2(C)[C@@]1(O)C(=O)CO` [HALOMETASONE], for which the half-maximal activity concentration (AC50) in test [1] was 23.3 µM; in [2], greater than 30 µM; in test [3], greater than 30 µM; at Acetylcholinesterase, greater than 30 µM; in test [4], greater than 30 µM; on Thromboxane A2 receptor it was greater than 30 µM. Also, the results for the AC50 (in test [5]; at Progesterone receptor; in [6]) were greater than 30 µM, 7.72 µM and greater than 30 µM, respectively.
As for `CN1CCN(C(c2ccccc2)c2ccccc2)CC1` [CYCLIZINE], the concentration at half-maximal activity (AC50) was greater than 30 µM in test [1]; greater than 30 µM in test [2]; greater than 30 µM in [3]; greater than 30 µM at Acetylcholinesterase; 0.334 µM in [4]; greater than 30 µM on Thromboxane A2 receptor. Further, the concentration at half-maximal activity (AC50) (in [5]; on Progesterone receptor; in test [6]) was greater than 30 µM throughout.
Turning to `CCCC[N+]1(C)[C@@H]2C[C@@H](OC(=O)[C@H](CO)c3ccccc3)C[C@H]1[C@@H]1O[C@@H]12` (stereo partly specified) [BUTYLSCOPOLAMINE], the AC50 (in [1]; in [2]; in test [3]; at Acetylcholinesterase; on Thromboxane A2 receptor; in test [5]) was greater than 30 µM throughout. The AC50 (on Progesterone receptor; in test [6]) was greater than 30 µM each time.

For orientation: AC50 means the concentration at which the activity in the assay is half-maximal.

For the origin of these results see ChEMBL document CHEMBL5291721, “A preclinical secondary pharmacology resource illuminates target-adverse drug reaction associations of marketed drugs” (Nat Commun, 2023).
